For one test, the target named is mMC4R (Mus musculus, UniProt P56450). The experiment in a line: AlphaScreen cAMP agonist assay in HEK293 cells stably expressing mMC4R. The following applies: for Fold diff (mMC4R): decrease in agonist potency compared to peptide 1. On the technique in general: Bead proximity is the source of the signal in Alpha formats.
For a further test, the target named is mMC5R (Mus musculus, UniProt P41149). The experiment in a line: AlphaScreen cAMP agonist assay in HEK293 cells stably expressing mMC5R. The note with it: for Fold diff (mMC5R): decrease in agonist potency compared to peptide 1.
mMC5R, sequence (P41149 whole entry): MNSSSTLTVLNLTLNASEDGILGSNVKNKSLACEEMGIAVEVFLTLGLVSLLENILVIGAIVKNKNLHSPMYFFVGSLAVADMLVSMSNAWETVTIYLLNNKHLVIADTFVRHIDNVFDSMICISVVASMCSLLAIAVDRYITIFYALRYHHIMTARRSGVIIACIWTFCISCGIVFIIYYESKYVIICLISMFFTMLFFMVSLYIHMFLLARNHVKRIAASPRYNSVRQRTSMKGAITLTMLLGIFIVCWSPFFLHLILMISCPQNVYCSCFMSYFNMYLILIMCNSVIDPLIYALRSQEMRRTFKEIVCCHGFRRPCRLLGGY
The target in another test is mMC1R (Mus musculus, UniProt Q01727). The test can be described thus: AlphaScreen cAMP agonist assay in HEK293 cells stably expressing mMC1R. The note with it: for Fold diff (mMC1R): decrease in agonist potency compared to peptide 1.
mMC1R, sequence (Q01727 whole entry): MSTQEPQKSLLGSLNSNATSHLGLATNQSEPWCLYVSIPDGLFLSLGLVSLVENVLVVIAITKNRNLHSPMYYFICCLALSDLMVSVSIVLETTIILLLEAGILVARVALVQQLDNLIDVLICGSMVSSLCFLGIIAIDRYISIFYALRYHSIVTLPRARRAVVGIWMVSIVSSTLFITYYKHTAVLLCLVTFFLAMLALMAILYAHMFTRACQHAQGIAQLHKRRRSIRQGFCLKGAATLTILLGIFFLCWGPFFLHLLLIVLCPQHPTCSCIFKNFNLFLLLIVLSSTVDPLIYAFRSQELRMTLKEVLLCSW
A further test deals with mMC3R (Mus musculus, UniProt P33033). The experiment in a line: AlphaScreen cAMP agonist assay in HEK293 cells stably expressing mMC3R. The following applies: for Fold diff (mMC3R): decrease in agonist potency compared to peptide 1.
mMC3R, sequence (P33033 whole entry): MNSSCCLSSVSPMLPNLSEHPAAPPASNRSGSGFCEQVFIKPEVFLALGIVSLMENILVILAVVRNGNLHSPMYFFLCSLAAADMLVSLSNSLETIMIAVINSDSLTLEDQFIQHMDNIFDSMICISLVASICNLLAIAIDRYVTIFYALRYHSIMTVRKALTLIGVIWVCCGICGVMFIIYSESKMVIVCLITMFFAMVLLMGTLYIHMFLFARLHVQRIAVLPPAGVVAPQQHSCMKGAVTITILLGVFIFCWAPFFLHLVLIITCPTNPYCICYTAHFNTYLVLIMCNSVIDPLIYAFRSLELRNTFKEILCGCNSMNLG

SMILES strings stand for the structures. Numbered stars: 1 amine (or outer) side, 2 acyl side, 3 side chain; on linkers, the order of the positions; unused ones are H or OH. Square brackets hold non-standard residues; d marks the D form. Peptide text beside a SMILES is read from it. X1 = C#Cc1cccc(-c2cn(C[C@H](N[*:1])C(=O)[*:2])nn2)c1; X2 = C#Cc1cccc(-c2cnnn2C[C@H](N[*:1])C(=O)[*:2])c1

mMC4R, sequence (P56450 whole entry): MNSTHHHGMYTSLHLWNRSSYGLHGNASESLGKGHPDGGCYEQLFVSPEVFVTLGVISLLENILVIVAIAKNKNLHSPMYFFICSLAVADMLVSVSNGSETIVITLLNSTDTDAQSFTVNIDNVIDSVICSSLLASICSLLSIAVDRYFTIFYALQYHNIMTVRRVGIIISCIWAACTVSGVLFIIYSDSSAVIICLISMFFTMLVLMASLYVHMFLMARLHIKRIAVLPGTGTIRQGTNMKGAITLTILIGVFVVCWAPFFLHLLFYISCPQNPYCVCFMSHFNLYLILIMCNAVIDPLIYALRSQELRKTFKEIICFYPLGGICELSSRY

With `C[C@@H]1NC(=O)[C@H](CC(N)=O)NC(=O)[C@H](Cc2c[nH]c3ccccc23)NC(=O)[C@H](CCCN=C(N)N)NC(=O)[C@@H](Cc2ccccc2)NC(=O)[C@H](Cc2cnc[nH]2)NC(=O)[C@@H](NC(=O)[C@@H](N)Cc2ccc(O)cc2)CSSC[C@@H](C(=O)N[C@@H](Cc2ccc(O)cc2)C(N)=O)NC(=O)[C@H](Cc2ccccc2)NC1=O` [Peptide 1, Tyr-c[Cys-His-DPhe-Arg-Trp-Asn-Ala-Phe-Cys]-Tyr-NH2, reference compound], the EC50 (as a rule, the concentration at which the effect is half-maximal) on mMC4R came to 0.43 ± 0.13 nM; at mMC5R, 2.4 ± 0.31 nM; on mMC1R it was 0.14 ± 0.01 nM; at mMC3R, 2.2 ± 0.58 nM.

On to `C#Cc1cccc(-c2cn(C[C@H](NC(=O)[C@H](Cc3ccccc3)NC(=O)[C@H](C)NC(=O)[C@H](CC(N)=O)NC(=O)[C@H](Cc3c[nH]c4ccccc34)NC(=O)[C@H](CCCNC(=N)N)NC(=O)[C@@H](Cc3ccccc3)NC(=O)[C@H](Cc3c[nH]cn3)NC(=O)[C@H](Cn3cc(-c4cccc(C#C)c4)nn3)NC(=O)[C@@H](N)Cc3ccc(O)cc3)C(=O)N[C@@H](Cc3ccc(O)cc3)C(N)=O)nn2)c1` [Peptide 9] (H-Y[X1]H[dF]RWNAF[X1]Y-NH2), for which, at mMC4R, the midpoint of the response, the EC50, lay at 1520 ± 328 nM and the “Fold diff (mMC4R)” value stood at 3540 fold. Further, at mMC5R, the midpoint of the response, the EC50, lay at 294 ± 4.8 nM and the “Fold diff (mMC5R)” value was 122 fold. Besides, on mMC1R, the EC50 was found to be 802 ± 227 nM and the “Fold diff (mMC1R)” value came out at 5728 fold. Besides, on mMC3R, the EC50 was 1460 ± 245 nM and the “Fold diff (mMC3R)” value worked out at 665 fold.

As for `C#Cc1cccc(-c2cnnn2C[C@H](NC(=O)[C@H](Cc2ccccc2)NC(=O)[C@H](C)NC(=O)[C@H](CC(N)=O)NC(=O)[C@H](Cc2c[nH]c3ccccc23)NC(=O)[C@H](CCCNC(=N)N)NC(=O)[C@@H](Cc2ccccc2)NC(=O)[C@H](Cc2c[nH]cn2)NC(=O)[C@H](Cn2nncc2-c2cccc(C#C)c2)NC(=O)[C@@H](N)Cc2ccc(O)cc2)C(=O)N[C@@H](Cc2ccc(O)cc2)C(N)=O)c1` [Peptide 12] (H-Y[X2]H[dF]RWNAF[X2]Y-NH2), at mMC4R, the EC50 is 142 ± 30 nM and the “Fold diff (mMC4R)” value was 330 fold. At mMC5R, the midpoint of the response, the EC50, lay at 107 ± 17 nM and the “Fold diff (mMC5R)” value is reported as 45 fold. Moreover, on mMC1R, the EC50 came out at 116 ± 40 nM and the “Fold diff (mMC1R)” value came to 829 fold. At mMC3R, the EC50 is 404 ± 52 nM and the “Fold diff (mMC3R)” value was determined as 184 fold.

The record behind these values is PMC5955799 (ACS chemical neuroscience, 2018).
